The source of these data is patent US9738668B2.

One series deals with ABAD. The series is classed as biochemical.
Another series concerns brain mitochondria. In words: Mitochondria swelling assay in response to Ca2+. On the set-up: species or system mice. The method, then:
Brain from mice without white matter was used for mitochondrial isolation. Brain was homogenized in 9 ml of ice-cold EB buffer (1 mmol EDTA, 1-6 mg/ml BSA) using a Dounce homogenizer until no particles could be seen. Homogenates were centrifuged at 1300×g for 5 minutes. Supernatant from this fraction was carefully laid on top of a 15% PERCOLL solution (10 ml) and then centrifuged at 16000 RPM for 10 minutes. The pellet was carefully mixed with 9 ml of mitochondrial buffer (4.098% D-mannitol, 2.56% sucrose, 0.034% K2HPO4, pH 7.3-7.4) and 200 μl of 1% digitonin. After 5 minutes incubation on ice, the mixture was centrifuged at 8000 RPM for 10 minutes. Mitochondrial pellet was washed once with mitochondrial buffer. Subsequently, the mitochondrial pellet was resuspended in 100 μl of mitochondrial buffer and was used for further experiments.
A proper amount of mitochondria was resuspended into 1 ml swelling assay buffer (150 mM KCl, 2 mM KH2PO4, 10 mM HEPES, pH 7.4) and energized by 1 mM glutamate and 1 mM malate. Calcium at varying concentrations was added into the assay buffer to trigger mitochondrial swelling. Mitochondrial permeability transition was determined by studying the rate of change in absorbance at 540 nm via a spectrophotometer.
Given that the Compounds 4, 8 and 15 could inhibit ABAD activity, it was determined whether these same compounds could decrease mitochondrial permeability transition pore (mPTP) formation.

Series [1] deals with SK-N-SH cells. As to the kind of experiment: Mitochondrial cytochrome c oxidase (CcO) activity in Aβ-treated cells. The series is classed as cell-based. The method, then:
SK-NSH cells were treated with 5 μM oligomer Aβ plus 1 μM of ABAD inhibitor; inhibitor alone; vehicle (VEH) without inhibitor; or Aβ alone. Forty-eight hour later, CcO activity (μmol protein mg^−1 min^−1) was measured in cell lysates.
The CcO activity was measured according to known methods (Du, et al. (2008) Nat. Med. 14:1097-105) with a cytochrome c oxidase kit (Sigma). In brief, SK-N-SH cells were incubated with ABAD inhibitor and oligomer Aβ for 48 hours. After washing the cells twice with PBS, the cells were collected and concentration was determined by the Bradford method. A suitable volume of cells and enzyme solution was added to 475 μl assay buffer. The reaction was triggered by the addition of 25 μl freshly prepared ferrocytochrome C substrate solution into the cuvette. Changes in OD550 nm were recorded immediately with an Amersham Biosciences ULTROSPECT 3100 pro spectrophotometer.
To assess the effect of ABAD inhibitor on Aft-induced mitochondrial respiratory function, CcO activity was determined.

For series [2], the system named is SK-N-SH cells. In words: ATP levels in Aβ-treated cells. The series is classed as cell-based. The method, then: Forty-eight hour later, ATP levels (μmol mg^−1 protein) were measured in cell lysates.
To determine the effect of ABAD inhibitors on Aβ-induced impairment in energy metabolism, ATP levels were measured. […] ATP levels were measured in the cell lysates. […] Therefore, ABAD inhibitors can block mitochondrial dysfunction mediated by Aβ.

Series [3] in a line: Solubility in solvents during LC method development. The series is classed as physicochemical. The method, then: During the development of a detection method for analytes 4, 8 and 15, multiple solvents were tested to find the optimal mobile phase. […] Acetonitrile was selected for better peak shape and compatibility with serum/brain protein precipitation. Compounds 8 and 15 were chosen as IS, because of their structural similarity. Selected reaction monitoring (SRM) acquisitions were used for sensitivity and extended dynamic range. The cone voltage and collision energy were optimized for 4, 8 and 15 and the IS by continuously infusing a mixture of the two. The optimum cone voltage was 30V.

A short description of series [4]: Pharmacokinetic study and BBB penetration, LC-MS/MS of plasma and brain. The series is classed as in vivo, C57BL6 mice. Conditions: mice, intravenous 10 mg/kg. The method, then: Using the validated LCMS/MS method, blood and brain levels of 4, 8, and 15 were measured in male and female C57BL6 mice (8-10 week-old, weighing approximately 25-30 grams). The mice were housed in a room with controlled temperature (23±3° C.) and moisture level (55±15% relative humidity) and exposed to a controlled 12 hour light/12 hour dark cycle. They were allowed to access to food and water ad libitum. Mice were fasted for 6 hours with free access to water prior to the pharmacokinetic study. To determine the time course of compounds 4, 8, and 15 action in the brain, the plasma pharmacokinetics and BBB penetration capability of the inhibitors were investigated. In these experiments, compounds 4, 8, and 15 were administered to mice by intravenous injection at a dosage of 10 mg/kg. Blood and brain samples were collected from mouse at each time point (2, 5, 10, 30, 60, 120, 240, 360, 720, 1440, and 2880 minutes), a total of 11 time points. For plasma measurements, blood (approximately 500-800 μl) was collected via cardiac-puncture into tubes containing sodium heparin anti-coagulant. Plasma was separated via centrifugation (4° C., 3500 rpm, 10 minutes) and stored in −80° C. freezer. For qualitative confirmations of these compounds in CSF, samples were collected at 2 time points (240 and 1440 min) from five animals at each time point. At the time of measurement, frozen plasma samples were thawed at room temperature and vortexed thoroughly. The following quantities were estimated using non-compartmental calculations performed with WINNONLIN 5.2 (Pharsight, Sunnyvale, Calif.): the area under the plasma concentration-time curve during the period of observation (AUC0-τ); the area under the plasma concentration-time curve from zero to infinity (AUC0-∞); the maximum plasma concentration (Cmax); the time to reach Cmax (Tmax); and the half-life (t1/2).
The LC-MS/MS method described above was used for the determination of 4, 8 and 15 in plasma, brain, and CSF for pharmacokinetic study. Based on the initial concentration data, the pharmacokinetic parameters including the area under the plasma concentration-time curve during the period of observation (AUC0-t), the area under the plasma concentration-time curve from zero to infinity (AUC0-∞) the maximum plasma concentration (Cmax) the time to reach Cmax (Tmax) and the half-life (t1/2) are shown in Table 8.

For another series, the system named is Aβ-ABAD interaction. Particulars: cited from earlier work.
For series [5] the following is noted: cited from earlier work.

For the molecule `COc1ccc2nc(N[C@@H](c3ccc(F)cc3)P(=O)(OC)OC)sc2c1` [Compound 15, Dimethyl ((4-fluorophenyl) ((6-methoxybenzo[d]thiazol-2-yl)amino)methyl) phosphonate], the “inhibition of SAAC reduction by ABAD” value in the series on ABAD (at 10 μM) is on record as “did not inhibit”. For the same molecule, the “inhibitory effect on SAAC reduction by ABAD” value with ABAD (at 100 or 400 μM) is “slight inhibitory effect”. The calcium-mediated mitochondrial swelling entry in the series on brain mitochondria (with calcium) is “antagonized calcium-mediated mitochondrial swelling”. Moreover, the “mitochondrial swelling without calcium” value in the series on brain mitochondria (without calcium) is listed as “did not affect mitochondrial swelling”. Besides, in the series with SK-N-SH cells [1] (1 μM inhibitor without Aβ), the “CcO activity, inhibitor alone” value is “had no effect on CcO activity”. In addition, the CcO activity entry in the series on SK-N-SH cells [1] (5 μM oligomer Aβ1-42 plus 1 μM inhibitor, 48 hours) was “reversed the Aβ-mediated decrease of CcO activity”. For the same molecule, in the series with SK-N-SH cells [2] (5 μM Aβ1-42 plus 1 μM inhibitor), the ATP levels entry is given as “rescued ATP levels”. For the same molecule, in the series with SK-N-SH cells [2] (inhibitor without Aβ), the “ATP levels, inhibitor alone” value is “comparable to cells treated with vehicle alone”. Further, the “solubility in methanol or acetonitrile” value in series [3] (methanol or acetonitrile) is “dissolved readily”. Also, the solubility in water result in series [3] (water) is on record as “dissolved partially”. Moreover, the “t1/2” value in series [4] (Brain) turned out to be 11.4 h; in series [4] (Plasma), 6.1 h.
For `Nc1c(/N=N/c2ccc(-c3ccc(/N=N/c4cc(S(=O)(=O)O)c5ccccc5c4N)cc3)cc2)cc(S(=O)(=O)O)c2ccccc12` [Congo red], the “inhibition of Aβ binding” value in the series with Aβ-ABAD interaction is recorded as 100%. Besides, in series [5], the cell permeability result is recorded as “poor cell permeability”.
For fentizole, the inhibitory activity result in the series on Aβ-ABAD interaction was “exhibit inhibitory activity”.
On to thioflavin T, for which the “inhibition of Aβ binding” value in the series with Aβ-ABAD interaction was around 20%.
